Test results reported in patent US11708423B2, “Chimeric engulfment receptor molecules and methods of use” (CERO THERAPEUTICS, INC., priority 2017, dated 2023).

Key:
[1] = system: HCC159 lung adenocarcinoma cells; assay: Tim4-IgG1 Fc staining for phosphatidylserine exposure after EGFR inhibitor treatment; type: cell-based; conditions: 12 hours, increasing concentrations 50 nM and higher
Description: HCC159 lung adenocarcinoma cells harbor an EGFR mutation and are sensitive to EGFR inhibition.

[2] = system: dexamethasone pre-treated thymocytes; assay: Phagocytosis of thymocytes by CER Ba/F3 cells in presence or absence of Racl inhibitor; type: cell-based

SMILES | surface staining with Tim4-IgG1 Fc fusion protein (phosphatidylserine exposure) [1] | effect of Racl inhibitor on phagocytosis by CER21-transduced Ba/F3 cells ([2]; 6 hour co-culture, FACS) | effect of Racl inhibition on CER116 mediated phagocytosis ([2]; Ba/F3 cells, fluorescent micrographs)
C#Cc1cccc(Nc2ncnc3cc(OCCOC)c(OCCOC)cc23)c1 [Erlotinib] | enhanced surface staining with Tim4-IgG1 Fc fusion protein | – | –
CCN(CC)CCCC(C)Nc1nc(C)cc(Nc2ccc3nc(C)cc(N)c3c2)n1 (stereo not shown) [NSC23766] | – | abolishes phagocytosis | abolishes CER116 mediated phagocytosis of thymocytes
C=CC(=O)Nc1cc(Nc2nccc(-c3cn(C)c4ccccc34)n2)c(OC)cc1N(C)CCN(C)C [Osimeritinib] | enhanced surface staining with Tim4-IgG1 Fc fusion protein | – | –
